Calls of active or inactive are those of the source. No cut-off for these calls is given here.
How the values were obtained:
[1] = target: 3-hydroxy-3-methylglutaryl-coenzyme A reductase (Homo sapiens) (UniProt P04035); experiment: Inhibition of HMG-CoA Reductase at 10.0 µM in the Eurofins Panlabs Safety Screen; conditions: Compound concentration 10.0 uM
[2] = target: Methionine aminopeptidase 2 (Mus musculus, UniProt O08663); experiment: METAP2 biochemical assay (mouse)
[3] = tested on: Arachidonate 15-lipoxygenase B ALOX15B (Homo sapiens); experiment: Inhibition of Lipoxygenase 15-LOX-2 at 10.0 µM in the Eurofins Panlabs Safety Screen; conditions: Compound concentration 10.0 uM
[4] = target: Methionine aminopeptidase 2 (Homo sapiens, UniProt P50579); experiment: Degradation in HUVEC cells (WB) Dmax (Western Blot (WB)); assay type: functional, cell-based
Methionine aminopeptidase 2 (Homo sapiens, UniProt P50579), sequence (P50579 2-478 limits assumed): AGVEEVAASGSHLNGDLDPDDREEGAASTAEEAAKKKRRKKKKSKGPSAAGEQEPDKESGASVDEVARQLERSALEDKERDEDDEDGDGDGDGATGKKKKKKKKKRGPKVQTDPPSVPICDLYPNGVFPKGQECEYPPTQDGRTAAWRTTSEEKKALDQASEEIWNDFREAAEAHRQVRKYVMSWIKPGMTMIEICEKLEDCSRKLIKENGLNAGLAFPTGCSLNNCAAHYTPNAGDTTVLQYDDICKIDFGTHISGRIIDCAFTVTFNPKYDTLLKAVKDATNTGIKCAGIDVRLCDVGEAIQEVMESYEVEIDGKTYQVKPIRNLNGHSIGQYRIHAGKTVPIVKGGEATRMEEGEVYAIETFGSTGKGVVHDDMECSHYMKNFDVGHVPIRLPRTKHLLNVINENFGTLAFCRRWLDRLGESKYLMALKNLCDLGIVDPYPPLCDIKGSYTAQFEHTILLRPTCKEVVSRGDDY

[5] = target: GABA transporter (Rattus norvegicus) (UniProt P31647+P23978+P31646+P48056); experiment: Inhibition of Transporter, GABA at 10.0 µM in the Eurofins Panlabs Safety Screen; assay type: protein assay; conditions: Compound concentration 10.0 uM
[6] = target: Serine/threonine-protein kinase pim-3 (Homo sapiens) (UniProt Q86V86); experiment: Inhibition of Pim-3(h) at 10.0 µM in the Eurofins Kinase panel; conditions: Compound concentration 10.0 uM
[7] = target: Cannabinoid receptor 1 (Homo sapiens) (UniProt P21554); experiment: Inhibition of Cannabinoid CB1 at 10.0 µM in the Eurofins Panlabs Safety Screen; conditions: Compound concentration 10.0 uM
Cannabinoid receptor 1 (Homo sapiens), sequence (P21554 whole entry): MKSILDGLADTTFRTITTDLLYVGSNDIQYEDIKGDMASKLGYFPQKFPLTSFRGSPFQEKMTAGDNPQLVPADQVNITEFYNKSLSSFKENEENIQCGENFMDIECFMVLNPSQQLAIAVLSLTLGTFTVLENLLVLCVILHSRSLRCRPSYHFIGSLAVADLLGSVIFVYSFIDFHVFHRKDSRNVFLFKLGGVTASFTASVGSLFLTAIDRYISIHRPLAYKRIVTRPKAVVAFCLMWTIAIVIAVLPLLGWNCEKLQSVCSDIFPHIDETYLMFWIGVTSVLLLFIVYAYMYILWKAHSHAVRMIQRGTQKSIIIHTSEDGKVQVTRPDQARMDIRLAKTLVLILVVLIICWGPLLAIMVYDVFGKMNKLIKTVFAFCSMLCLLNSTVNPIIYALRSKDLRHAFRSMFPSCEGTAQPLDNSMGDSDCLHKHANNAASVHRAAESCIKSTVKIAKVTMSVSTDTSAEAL

[8] = target: Ribosomal protein S6 kinase alpha-5 (Homo sapiens) (UniProt O75582); experiment: Inhibition of MSK1(h) at 10.0 µM in the Eurofins Kinase panel; conditions: Compound concentration 10.0 uM
[9] = target: Serine/threonine-protein kinase tousled-like 1 (Homo sapiens) (UniProt Q9UKI8); experiment: Inhibition of TLK1(h) at 10.0 µM in the Eurofins Kinase panel; conditions: Compound concentration 10.0 uM
[10] = target: Mitogen-activated protein kinase kinase kinase kinase 2 MAP4K2 (Homo sapiens) (UniProt Q12851); experiment: Inhibition of GCK at 10.0 µM in the Eurofins Kinase panel; conditions: Compound concentration 10.0 uM
[11] = target: Beta-1 adrenergic receptor (Homo sapiens) (UniProt P08588); conditions: Compound concentration 10.0 uM
Beta-1 adrenergic receptor (Homo sapiens), sequence (P08588 whole entry, looked up): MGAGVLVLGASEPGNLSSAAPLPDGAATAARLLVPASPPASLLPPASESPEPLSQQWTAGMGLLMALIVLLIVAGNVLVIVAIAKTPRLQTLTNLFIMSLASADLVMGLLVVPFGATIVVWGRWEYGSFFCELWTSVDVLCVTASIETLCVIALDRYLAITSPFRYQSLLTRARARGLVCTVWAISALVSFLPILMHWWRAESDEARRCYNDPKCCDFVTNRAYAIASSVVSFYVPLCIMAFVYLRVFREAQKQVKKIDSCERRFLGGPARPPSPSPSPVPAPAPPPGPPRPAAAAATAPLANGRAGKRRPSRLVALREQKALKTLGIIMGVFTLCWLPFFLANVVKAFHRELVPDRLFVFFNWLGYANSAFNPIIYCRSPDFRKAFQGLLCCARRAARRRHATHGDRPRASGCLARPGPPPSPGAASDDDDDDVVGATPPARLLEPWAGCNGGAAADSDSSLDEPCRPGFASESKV

[12] = target: Calcium/calmodulin-dependent protein kinase type 1G (Homo sapiens) (UniProt Q96NX5); experiment: Inhibition of CaMKIgamma(h) at 10.0 µM in the Eurofins Kinase panel; conditions: Compound concentration 10.0 uM
[13] = target: Glutamate NMDA receptor (Rattus norvegicus) (UniProt P35439+Q00959+Q00960+Q00961+Q62645+Q8VHN2+Q9R1M7); experiment: Inhibition of Glutamate, NMDA, Glycine at 10.0 µM in the Eurofins Panlabs Safety Screen; assay type: protein-complex assay; conditions: Compound concentration 10.0 uM
[14] = target: Casein kinase II subunit alpha' (Homo sapiens) (UniProt P19784); experiment: Inhibition of CK2alpha2(h) at 10.0 µM in the Eurofins Kinase panel; conditions: Compound concentration 10.0 uM
[15] = target: Tyrosine-protein kinase Lck (Homo sapiens) (UniProt P06239); experiment: Inhibition of Lck(h) activated at 10.0 µM in the Eurofins Kinase panel; conditions: Compound concentration 10.0 uM
[16] = target: Serine/threonine-protein kinase Nek1 (Homo sapiens) (UniProt Q96PY6); experiment: Inhibition of NEK1(h) at 10.0 µM in the Eurofins Kinase panel; conditions: Compound concentration 10.0 uM
[17] = target: MAP kinase-activated protein kinase 2 (Homo sapiens) (UniProt P49137); experiment: Inhibition of MAPKAP-K2(h) at 10.0 µM in the Eurofins Kinase panel; conditions: Compound concentration 10.0 uM
MAP kinase-activated protein kinase 2 (Homo sapiens), sequence (P49137 whole entry, looked up): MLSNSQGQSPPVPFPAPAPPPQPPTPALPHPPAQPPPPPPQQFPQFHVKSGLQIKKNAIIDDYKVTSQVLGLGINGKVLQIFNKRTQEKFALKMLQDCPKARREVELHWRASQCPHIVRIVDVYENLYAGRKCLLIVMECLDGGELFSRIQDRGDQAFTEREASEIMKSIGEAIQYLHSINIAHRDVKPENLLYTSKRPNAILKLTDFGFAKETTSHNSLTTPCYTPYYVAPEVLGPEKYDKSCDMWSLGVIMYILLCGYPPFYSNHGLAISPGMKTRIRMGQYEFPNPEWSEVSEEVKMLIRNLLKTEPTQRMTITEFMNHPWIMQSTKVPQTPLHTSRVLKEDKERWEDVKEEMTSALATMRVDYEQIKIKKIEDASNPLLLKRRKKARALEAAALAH

D(3) dopamine receptor = D(3) dopamine receptor (Homo sapiens, UniProt P35462); experiment: GPCRScan assay: inhibition of D3; parameters: radioligand conc. used [nm] 0.5 – 1.8, parental cells HEKT
D(3) dopamine receptor, sequence (P35462 whole entry): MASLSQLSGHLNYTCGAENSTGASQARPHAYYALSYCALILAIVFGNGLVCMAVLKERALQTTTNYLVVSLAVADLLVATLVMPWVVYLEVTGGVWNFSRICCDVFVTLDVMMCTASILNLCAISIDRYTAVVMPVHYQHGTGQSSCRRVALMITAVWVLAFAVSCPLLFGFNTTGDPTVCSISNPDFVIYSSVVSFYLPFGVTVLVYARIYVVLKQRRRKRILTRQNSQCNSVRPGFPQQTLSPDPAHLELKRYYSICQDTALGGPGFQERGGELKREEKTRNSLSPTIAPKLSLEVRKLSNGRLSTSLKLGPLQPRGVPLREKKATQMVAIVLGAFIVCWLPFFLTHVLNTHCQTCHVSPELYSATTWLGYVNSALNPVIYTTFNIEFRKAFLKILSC

[18] = target: Serine/threonine-protein kinase DCLK3 (Homo sapiens) (UniProt Q9C098); experiment: Inhibition of DCAMKL3(h) at 10.0 µM in the Eurofins Kinase panel; conditions: Compound concentration 10.0 uM
Serine/threonine-protein kinase DCLK3 (Homo sapiens), sequence (Q9C098 whole entry): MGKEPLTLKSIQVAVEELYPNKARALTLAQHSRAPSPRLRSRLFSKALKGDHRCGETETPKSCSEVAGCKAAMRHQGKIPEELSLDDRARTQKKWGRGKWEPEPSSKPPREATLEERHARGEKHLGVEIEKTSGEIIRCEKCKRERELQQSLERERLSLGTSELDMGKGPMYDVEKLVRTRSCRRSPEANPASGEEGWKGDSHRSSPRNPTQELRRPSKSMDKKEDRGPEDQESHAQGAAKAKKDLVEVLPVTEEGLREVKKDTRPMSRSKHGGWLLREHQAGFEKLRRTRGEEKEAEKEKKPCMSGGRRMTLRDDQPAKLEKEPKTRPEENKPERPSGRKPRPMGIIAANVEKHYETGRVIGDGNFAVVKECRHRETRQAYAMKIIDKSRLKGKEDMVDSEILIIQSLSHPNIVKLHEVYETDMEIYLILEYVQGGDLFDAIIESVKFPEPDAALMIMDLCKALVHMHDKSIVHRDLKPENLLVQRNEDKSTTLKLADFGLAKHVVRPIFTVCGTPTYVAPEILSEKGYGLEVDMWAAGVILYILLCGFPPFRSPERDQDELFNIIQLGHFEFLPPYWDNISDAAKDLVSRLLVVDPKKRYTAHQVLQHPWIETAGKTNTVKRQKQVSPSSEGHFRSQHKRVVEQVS

[19] = target: RAC-beta serine/threonine-protein kinase (Homo sapiens) (UniProt P31751); experiment: Inhibition of PKBbeta(h) at 10.0 µM in the Eurofins Kinase panel; conditions: Compound concentration 10.0 uM
[20] = target: Mitogen-activated protein kinase kinase kinase 21 (Homo sapiens) (UniProt Q5TCX8); experiment: Inhibition of MLK4(h) at 10.0 µM in the Eurofins Kinase panel; conditions: Compound concentration 10.0 uM
Mitogen-activated protein kinase kinase kinase 21 (Homo sapiens), sequence (Q5TCX8 whole entry): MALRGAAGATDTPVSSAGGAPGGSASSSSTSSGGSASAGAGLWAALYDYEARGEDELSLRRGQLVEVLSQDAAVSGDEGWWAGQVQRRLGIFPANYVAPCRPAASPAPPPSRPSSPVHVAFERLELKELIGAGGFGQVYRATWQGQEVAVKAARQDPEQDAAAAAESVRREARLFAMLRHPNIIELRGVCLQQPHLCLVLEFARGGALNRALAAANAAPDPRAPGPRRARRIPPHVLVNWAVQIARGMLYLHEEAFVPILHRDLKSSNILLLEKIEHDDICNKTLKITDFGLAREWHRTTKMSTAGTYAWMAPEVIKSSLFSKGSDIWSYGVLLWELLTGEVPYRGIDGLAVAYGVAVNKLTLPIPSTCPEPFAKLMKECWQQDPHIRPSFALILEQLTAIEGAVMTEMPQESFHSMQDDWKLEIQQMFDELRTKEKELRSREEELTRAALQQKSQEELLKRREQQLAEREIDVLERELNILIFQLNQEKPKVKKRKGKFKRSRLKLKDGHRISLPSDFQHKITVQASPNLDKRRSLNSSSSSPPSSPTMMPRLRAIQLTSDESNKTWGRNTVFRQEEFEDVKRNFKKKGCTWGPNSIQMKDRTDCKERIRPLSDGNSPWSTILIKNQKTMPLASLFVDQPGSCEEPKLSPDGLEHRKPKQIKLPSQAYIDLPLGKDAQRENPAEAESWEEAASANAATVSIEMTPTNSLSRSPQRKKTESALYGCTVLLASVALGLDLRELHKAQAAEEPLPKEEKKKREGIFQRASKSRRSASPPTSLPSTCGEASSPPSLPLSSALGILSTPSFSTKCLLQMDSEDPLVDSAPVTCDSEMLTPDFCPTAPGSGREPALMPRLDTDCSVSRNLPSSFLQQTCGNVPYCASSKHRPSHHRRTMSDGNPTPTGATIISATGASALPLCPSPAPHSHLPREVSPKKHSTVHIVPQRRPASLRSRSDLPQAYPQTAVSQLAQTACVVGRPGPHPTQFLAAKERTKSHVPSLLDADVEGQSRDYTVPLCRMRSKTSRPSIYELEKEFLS

[21] = target: Interferon-induced, double-stranded RNA-activated protein kinase (Homo sapiens) (UniProt P19525); experiment: Inhibition of PKR(h) at 10.0 µM in the Eurofins Kinase panel; conditions: Compound concentration 10.0 uM
[22] = target: TRAF2 and NCK-interacting protein kinase (Homo sapiens) (UniProt Q9UKE5); experiment: Inhibition of TNIK(h) at 10.0 µM in the Eurofins Kinase panel; conditions: Compound concentration 10.0 uM
[23] = target: SNF-related serine/threonine-protein kinase (Homo sapiens) (UniProt Q9NRH2); experiment: Inhibition of SNRK(h) at 10.0 µM in the Eurofins Kinase panel; conditions: Compound concentration 10.0 uM
SNF-related serine/threonine-protein kinase (Homo sapiens), sequence (Q9NRH2 whole entry): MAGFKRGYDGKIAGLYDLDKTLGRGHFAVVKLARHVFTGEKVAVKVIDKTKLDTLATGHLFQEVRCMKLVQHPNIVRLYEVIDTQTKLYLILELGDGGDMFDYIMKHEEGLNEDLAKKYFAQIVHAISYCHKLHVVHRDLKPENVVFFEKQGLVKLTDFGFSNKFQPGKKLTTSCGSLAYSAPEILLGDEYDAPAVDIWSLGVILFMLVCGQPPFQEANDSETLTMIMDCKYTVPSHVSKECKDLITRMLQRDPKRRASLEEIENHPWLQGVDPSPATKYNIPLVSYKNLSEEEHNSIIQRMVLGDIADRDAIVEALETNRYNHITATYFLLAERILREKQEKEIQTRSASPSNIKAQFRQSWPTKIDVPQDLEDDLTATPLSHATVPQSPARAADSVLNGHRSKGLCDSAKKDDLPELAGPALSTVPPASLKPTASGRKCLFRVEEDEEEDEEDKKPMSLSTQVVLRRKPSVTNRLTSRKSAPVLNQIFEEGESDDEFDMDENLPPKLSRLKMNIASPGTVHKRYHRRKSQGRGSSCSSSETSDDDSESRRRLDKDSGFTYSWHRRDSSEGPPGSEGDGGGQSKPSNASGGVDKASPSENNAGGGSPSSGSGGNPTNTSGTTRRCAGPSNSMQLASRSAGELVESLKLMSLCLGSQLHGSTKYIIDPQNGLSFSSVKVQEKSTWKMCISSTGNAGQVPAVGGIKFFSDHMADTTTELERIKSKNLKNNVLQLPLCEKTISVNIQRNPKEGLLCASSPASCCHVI

[24] = target: Serine/threonine-protein kinase Nek5 (Homo sapiens) (UniProt Q6P3R8); experiment: Inhibition of NEK5(h) at 10.0 µM in the Eurofins Kinase panel; conditions: Compound concentration 10.0 uM
[25] = target: Protein kinase C alpha type (Homo sapiens) (UniProt P17252); experiment: Inhibition of PKCalpha(h) at 10.0 µM in the Eurofins Kinase panel; conditions: Compound concentration 10.0 uM
[26] = target: Serine/threonine-protein kinase DCLK2 (Homo sapiens) (UniProt Q8N568); experiment: Inhibition of DCAMKL2(h) at 10.0 µM in the Eurofins Kinase panel; conditions: Compound concentration 10.0 uM
[27] = target: Serine/threonine-protein kinase 38 (Homo sapiens) (UniProt Q15208); experiment: Inhibition of NDR1(h) at 10.0 µM in the Eurofins Kinase panel; conditions: Compound concentration 10.0 uM
[28] = target: Dual specificity protein kinase CLK4 (Homo sapiens) (UniProt Q9HAZ1); experiment: Inhibition of CLK4(h) at 10.0 µM in the Eurofins Kinase panel; conditions: Compound concentration 10.0 uM

O=C1CCC(N2Cc3cc(C4CCN(C(=O)CCCCCN5CCC(c6ccc(Oc7nn8cnnc8c8c7CCCC8)cc6)CC5)CC4)ccc3C2=O)C(=O)N1 (stereo not given)
inhibition [1]: 12%
IC50 [2]: 5.9 nM (active)
inhibition [3]: -1%
DCmax [4]: 94%
inhibition [5]: 5%
inhibition [6]: 10.3%
inhibition [7]: 1%
inhibition [8]: 19.4%
inhibition [9]: 12.3%
inhibition [10]: 11.3%
inhibition [11]: 0.81%
inhibition [12]: 15.7%

O=C1NCCCC1N1Cc2cc(C3CCN(C(=O)CCCCCN4CCC(c5ccc(Oc6nn7cnnc7c7c6CCCC7)cc5)CC4)CC3)ccc2C1=O (stereo not given)
inhibition [13]: -6%
inhibition [14]: 10.9%
inhibition [15]: 13.3%
inhibition [16]: 11.4%
inhibition [17]: 16.6%
Ki (D(3) dopamine receptor; read-out: Ki): 525 nM
Ki (D(3) dopamine receptor; read-out: pKi (converted)): 490 nM
inhibition [18]: 10.5%
inhibition [19]: 14.1%
inhibition [20]: 10.7%
inhibition [21]: 10.3%
inhibition [22]: 12.5%
inhibition [23]: 10.6%
inhibition [24]: 17.5%
inhibition [25]: 12.8%
inhibition [26]: 12%
inhibition [27]: 11.2%
inhibition [28]: 10.8%

— ChEMBL document CHEMBL5463725, “Data for DCP probe BAY-277” (2023)
